How the values were obtained:
Type in all cases: cell-based, human
iFECD [1] = assay: Immunostaining of extracellular matrix-constituting proteins with SB431542; settings: FIG. 8
Protocol: For a tissue staining test, cultured cells were put in Lab-TekTM Chamber SlidesTM (NUNC A/S, Roskilde, Denmark), fixed with 4% formaldehyde for 10 minutes at room temperature (RT), and incubated with 1% bovine serum albumin (BSA) for 30 minutes. […] In order to examine expression of an extracellular matrix produced by cells, a 1:200 dilution of each of antibodies against collagen type I, collagen type IV, and Fibronectin was used to carry out. For a secondary antibody, a 1:2000 dilution of Alexa Fluor (registered trademark) 488 labeled, or Alexa Fluor (registered trademark) 594 labeled goat anti-mouse IgG (Life Technologies) was used. Cell nuclei were then stained with DAPI (Vector Laboratories, Inc., Burlingame, Calif.) or PI (Sigma-Aldrich). A slide was then observed under a fluorescence microscope (TCS SP2 AOBS; Leica Microsystems, Welzlar, Germany). Then, expression of collagen type I, collagen type IV, and Fibronectin was similarly examined by immunostaining. The immunostaining was carried out in accordance with the above-described examples, provided that the following antibodies were used as antibodies for collagen type I, collagen type IV, and Fibronectin. An antibody against collagen type I: Anti collagen type I (Rabbit polyclonal) ([…] antibodies and assays, Cat no.: 600-401-103S) An antibody against collagen type IV: collagen type IV (Rabbit polyclonal)(Abcam, Cat no.: ab6586) An antibody against Fibronectin: Anti-fibronectin (mouse monoclonal) (BD Biosciences, Cat no.: 610077)

iFECD [2] = assay: HE-staining of extracellular matrix on Transwell with SB431542; settings: iFECD on Transwell without serum, fixed one week later; FIG. 9; p<0.01
Protocol: The iHCEC and the iFECD were cultured in DMEM on Transwell without serum, one week after which they were fixed in a confluent state and HE-stained. The procedure is as described below. If required, deparaffinization (for example, with pure ethanol) and water washing were carried out, and the sample was immersed in hematoxylin from Omni for 10 minutes. Thereafter, water washing with running water was performed, and ammonia water was used for developing color for 30 seconds. Thereafter, water washing with running water for 5 minutes, staining for 2 minutes with a ten-fold diluted solution of eosin hydrochloride, dehydration, lucidification, and mounting were performed. […] Further, the iHCEC and the iFECD were cultured on Transwell Permeable Supports: 0.4 μm, six well plates (Costar, Cat no.: 3450) without serum, one week after which they were fixed in a confluent state and HE-stained. The HE-staining was carried out in accordance with the procedure of the above-described examples.

iFECD [3] = assay: Real-time PCR of gene expression with TGF-beta signal inhibiting agent SB431542; settings: SB431542 0, 1, 3, 10 μM, FIG. 7, p<0.01
Protocol: Real-time PCR method: In addition, PCR was performed by a Taqman method for Snail1, Snail2, or ZEB1 in accordance with the following method. A Taqman probe was purchased from INVITROGEN. The mRNA amount of collagen type I, collagen type IV, and Fibronectin was examined by a real-time PCR method. RNEasy (QIAGEN, Catalog number: 74106) was used in extraction of the total RNA from cells. The extracted RNA was subjected to a reverse transcription reaction (42° C., 60 minutes) with ReverTra Ace (TOYOBO Co., Ltd., Catalog number: TRT-101), and collagen type I, collagen type IV, and Fibronectin were amplified with a reaction reagent TaqMan Fast Advanced mastermix (Applied Biosystems) using GAPDH as an internal standard. Probes (a labeled primer set available from Applied Biosystems) described below was used in the PCR reaction, which was performed in the StepOne™ (Applied Biosystems) real-time PCR system. It was then examined whether a TGF-beta signal inhibiting agent, SB431542, can be used to inhibit a TGF-beta signal and adjust extracellular matrix abnormality in a corneal endothelium. SB431542 was obtained from TOCRIS Corporation (Catalog number: 1614). The gene expression amount was confirmed by real-time PCR. Real-time PCR was carried out in accordance with the above-described examples. The following probes were used for collagen type I, collagen type IV, collagen type VIII, and Fibronectin. Collagen type I Hs00164004_ml COL1A1 Collagen type IV Hs00266327_ml COL4A1 Collagen type VIII Hs00697025_ml COL8A2 Fibronectin Hs01549976_ml FN1 GAPDH TaqMan® pre developed Assay Reagents Human GADPH (cat no.: 4333764F)

## NC(=O)c1ccc(-c2nc(-c3ccc4c(c3)OCO4)c(-c3ccccn3)[nH]2)cc1 [SB431542, 4-[4-(1,3-benzodioxol-5-yl)-5-(2-pyridinyl)-1H-imidazol-2-yl]benzamide]
iFECD [1]
  expression of Fibronectin in a protein level (immunostaining): suppressed
  expression of collagen type I in a protein level (immunostaining): suppressed
  expression of collagen type IV in a protein level (immunostaining): suppressed
  expression of collagen type VIII in a protein level (immunostaining): suppressed
iFECD [2]
  overproduction of an extracellular matrix (thickness, HE-staining): suppressed overproduction of an extracellular matrix in the iFECD to result in the normal level
iFECD [3]
  expression amount of Snail1 (real-time PCR): significant decrease
  expression amount of ZEB1 (real-time PCR): significant decrease
iFECD [3]; iFECD
  gene expression of Fibronectin (real-time PCR): significantly suppressed
  gene expression of collagen type I (real-time PCR): significantly suppressed
  gene expression of collagen type IV (real-time PCR): significantly suppressed
  gene expression of collagen type VIII (real-time PCR): significantly suppressed

From patent publication US11730722B2, “Corneal endothelium ECM therapeutic medicaments” (KYOTO PREFECTURAL PUBLIC UNIVERSITY CORPORATION, priority 2013, dated 2023)
